Assay results from patent publication US20070093520A1, “Method of treatment of diarrhea-predominant irritable bowel syndrome in a subject” (priority 2005, published 2007).

Test system: diarrhea-predominant IBS subjects
Test: 3007 Study: open-label 52-week safety study, adverse events and withdrawals
[1] = Cilansetron 2 mg/Cilansetron 2 mg

Structure (SMILES): Cc1nccn1C[C@H]1CCc2c(c3cccc4c3n2CCC4)C1=O [cilansetron, (R)-(−)-4,5,6,8,9,10-hexahydro-10-[(2-methyl-1H-imidazol-1-yl)methyl]-11H-pyrido-[3,2,1-jk]-carbazol-11-one]
- TEAE: Vulvovaginal Signs and Symptoms* (C/C group): 1 (<1%) n (%)
- TEAE: Wheezing (C/C group): 1 (<1%) n (%)
- TEAE: Abdominal Discomfort [1]: 1 (<1%) n (%)
- TEAE: Abdominal Distension [1]: 9 (4%) n (%)
- TEAE: Abdominal Pain Aggravated [1]: 4 (2%) n (%)
- TEAE: Abdominal Pain Lower [1]: 4 (2%) n (%)
- TEAE: Abdominal Pain NOS [1]: 14 (5%) n (%)
- TEAE: Abdominal Pain Upper [1]: 7 (3%) n (%)
- TEAE: Abdominal Rebound Tenderness [1]: 1 (<1%) n (%)
- TEAE: Abdominal Tenderness [1]: 9 (4%) n (%)
- TEAE: Abnormal Reflexes [1]: 1 (<1%) n (%)
- TEAE: Alanine Aminotransferase Increased [1]: 8 (3%) n (%)
- TEAE: Anal and Rectal Disorders NEC [1]: 0 n (%)
- TEAE: Anal and Rectal Pains [1]: 0 n (%)
- TEAE: Anal and Rectal Signs and Symptoms [1]: 1 (<1%) n (%)
- TEAE: Animal Bite [1]: 0 n (%)
- TEAE: Appendicitis [1]: 1 (<1%) n (%)
- TEAE: Arthralgia [1]: 10 (4%) n (%)
- TEAE: Arthritis NOS [1]: 3 (1%) n (%)
- TEAE: Arthritis NOS Aggravated [1]: 1 (<1%) n (%)
- TEAE: Arthropathies NEC [1]: 5 (2%) n (%)
- TEAE: Arthropod Bite [1]: 1 (<1%) n (%)
- TEAE: Arthropod Sting [1]: 0 n (%)
- TEAE: Aspartate Aminotransferase Increased [1]: 4 (2%) n (%)
- TEAE: Back Injury NOS [1]: 3 (1%) n (%)
- TEAE: Back Pain [1]: 12 (5%) n (%)
- TEAE: Back Pain Aggravated [1]: 2 (<1%) n (%)
- TEAE: Bacteria Identification and Serology (Excl Mycobacteria) [1]: 1 (<1%) n (%)
- TEAE: Bilirubin Urine [1]: 1 (<1%) n (%)
- TEAE: Bladder Infection NOS [1]: 0 n (%)
- TEAE: Blood Alkaline Phosphatase NOS Increased [1]: 2 (<1%) n (%)
- TEAE: Blood Bilirubin Increased [1]: 2 (<1%) n (%)
- TEAE: Blood Cholesterol Increased [1]: 11 (4%) n (%)
- TEAE: Blood Creatine Phosphokinase Increased [1]: 19 (7%) n (%)
- TEAE: Blood Creatine Phosphokinase Mb Increased [1]: 1 (<1%) n (%)
- TEAE: Blood Creatinine Increased [1]: 1 (<1%) n (%)
- TEAE: Blood Glucose Increased [1]: 2 (<1%) n (%)
- TEAE: Blood Potassium Increased [1]: 1 (<1%) n (%)
- TEAE: Blood Pressure Increased [1]: 3 (1%) n (%)
- TEAE: Blood Sodium Increased [1]: 1 (<1%) n (%)
- TEAE: Blood Triglycerides Increased [1]: 6 (2%) n (%)
- TEAE: Blood Uric Acid Increased [1]: 2 (<1%) n (%)
- TEAE: Blood Urine Present [1]: 6 (2%) n (%)
- TEAE: Blood in Stool [1]: 4 (2%) n (%)
- TEAE: Bone Density Decreased [1]: 0 n (%)
- TEAE: Bone Disorder NOS [1]: 1 (<1%) n (%)
- TEAE: Bone Disorders NEC [1]: 1 (<1%) n (%)
- TEAE: Bone Injury [1]: 1 (<1%) n (%)
- TEAE: Bone Spur [1]: 0 n (%)
- TEAE: Bronchitis Acute NOS [1]: 2 (<1%) n (%)
- TEAE: Bronchitis NOS [1]: 18 (7%) n (%)
- TEAE: Bronchopneumonia NOS [1]: 0 n (%)
- TEAE: Bunion [1]: 2 (<1%) n (%)
- TEAE: Bursal Disorders [1]: 3 (1%) n (%)
- TEAE: Bursitis [1]: 1 (<1%) n (%)
- TEAE: Candida Infections [1]: 2 (<1%) n (%)
- TEAE: Candidal Infection NOS [1]: 1 (<1%) n (%)
- TEAE: Carbohydrate Tolerance Analyses (Incl Diabetes) [1]: 2 (<1%) n (%)
- TEAE: Cardiac Auscultatory Investigations [1]: 1 (<1%) n (%)
- TEAE: Cardiac Murmur NOS [1]: 1 (<1%) n (%)
- TEAE: Carotid Bruit [1]: 0 n (%)
- TEAE: Carpal Tunnel Syndrome [1]: 2 (<1%) n (%)
- TEAE: Cartilage Disorder NOS [1]: 1 (<1%) n (%)
- TEAE: Cartilage Disorders [1]: 1 (<1%) n (%)
- TEAE: Cellulitis [1]: 0 n (%)
- TEAE: Cervical Spasm [1]: 1 (<1%) n (%)
- TEAE: Change in Bowel Habit NOS [1]: 0 n (%)
- TEAE: Chapped Lips [1]: 0 n (%)
- TEAE: Chest Wall Pain [1]: 0 n (%)
- TEAE: Cholesterol Analyses [1]: 11 (4%) n (%)
- TEAE: Colitis (Excl Infective) [1]: 0 n (%)
- TEAE: Colitis Ischaemic [1]: 0 n (%)
- TEAE: Colonic Polyp [1]: 1 (<1%) n (%)
- TEAE: Connective Tissue Disorders (Excl Le) [1]: 2 (<1%) n (%)
- TEAE: Constipation [1]: 66 (26%) n (%)
- TEAE: Cystitis NOS [1]: 1 (<1%) n (%)
- TEAE: Dental Disorders NEC [1]: 1 (<1%) n (%)
- TEAE: Dental Infections - Pathogen Class Unspecified [1]: 9 (4%) n (%)
- TEAE: Dental Pain and Sensation Disorders [1]: 2 (<1%) n (%)
- TEAE: Diaphragmatic Hernias [1]: 2 (<1%) n (%)
- TEAE: Diarrhoea (Excl Infective) [1]: 24 (9%) n (%)
- TEAE: Diarrhoea Aggravated [1]: 3 (1%) n (%)
- TEAE: Diarrhoea Haemorrhagic [1]: 0 n (%)
- TEAE: Diarrhoea NOS [1]: 22 (9%) n (%)
- TEAE: Disturbances in Consciousness NEC [1]: 3 (1%) n (%)
- TEAE: Diverticulitis NOS [1]: 1 (<1%) n (%)
- TEAE: Diverticulum Inflammations [1]: 1 (<1%) n (%)
- TEAE: Dizziness [1]: 4 (2%) n (%)
- TEAE: Dry Mouth [1]: 1 (<1%) n (%)
- TEAE: Dysarthria [1]: 0 n (%)
- TEAE: Dyskinesias and Movement Disorders NEC [1]: 0 n (%)
- TEAE: Dyspepsia [1]: 6 (2%) n (%)
- TEAE: Dyspepsia Aggravated [1]: 2 (<1%) n (%)
- TEAE: Dyspeptic Signs and Symptoms [1]: 10 (4%) n (%)
- TEAE: ECG Investigations [1]: 1 (<1%) n (%)
- TEAE: Ear Infection NOS [1]: 2 (<1%) n (%)
- TEAE: Ear Infections [1]: 2 (<1%) n (%)
- TEAE: Electrocardiogram Qrs Complex Abnormal [1]: 1 (<1%) n (%)
- TEAE: Electrocardiogram T Wave Inversion [1]: 0 n (%)
- TEAE: Enteritis [1]: 0 n (%)
- TEAE: Epigastric Discomfort [1]: 0 n (%)
- TEAE: Eructation [1]: 2 (<1%) n (%)
- TEAE: Eye Injuries NEC [1]: 1 (<1%) n (%)
- TEAE: Faecal Abnormality NOS [1]: 1 (<1%) n (%)
- TEAE: Faecal Impaction [1]: 0 n (%)
- TEAE: Faecal Incontinence [1]: 1 (<1%) n (%)
- TEAE: Faecal Occult Blood Positive [1]: 23 (9%) n (%)
- TEAE: Faeces Abnormal [1]: 2 (<1%) n (%)
- TEAE: Faeces Hard [1]: 1 (<1%) n (%)
- TEAE: Fibromyalgia [1]: 1 (<1%) n (%)
- TEAE: Flatulence [1]: 16 (6%) n (%)
- TEAE: Flatulence, Bloating and Distension [1]: 23 (9%) n (%)
- TEAE: Food Poisoning NOS [1]: 1 (<1%) n (%)
- TEAE: Foot Fracture [1]: 1 (<1%) n (%)
- TEAE: Fractures and Dislocations NEC [1]: 1 (<1%) n (%)
- TEAE: Frequent Bowel Movements [1]: 1 (<1%) n (%)
- TEAE: Fungal Infection NOS [1]: 2 (<1%) n (%)
- TEAE: Fungal Infections NEC [1]: 4 (2%) n (%)
- TEAE: Gamma-Glutamyltransferase Increased [1]: 5 (2%) n (%)
- TEAE: Gastric Irritation [1]: 1 (<1%) n (%)
- TEAE: Gastritis (Excl Infective) [1]: 3 (1%) n (%)
- TEAE: Gastritis NOS [1]: 3 (1%) n (%)
- TEAE: Gastroenteritis NOS [1]: 4 (2%) n (%)
- TEAE: Gastroenteritis Viral NOS [1]: 5 (2%) n (%)
- TEAE: Gastrointestinal Atonic and Hypomotility Disorders NEC [1]: 70 (27%) n (%)
- TEAE: Gastrointestinal Disorders [1]: 134 (52%) n (%)
- TEAE: Gastrointestinal Disorders NEC [1]: 1 (<1%) n (%)
- TEAE: Gastrointestinal Dyskinetic Disorders [1]: 2 (<1%) n (%)
- TEAE: Gastrointestinal Histopathology Procedures [1]: 25 (10%) n (%)
- TEAE: Gastrointestinal Infections - Pathogen Class Unspecified [1]: 4 (2%) n (%)
- TEAE: Gastrointestinal Inflammatory Disorders NEC [1]: 1 (<1%) n (%)
- TEAE: Gastrointestinal Motility Disorder NOS [1]: 2 (<1%) n (%)
- TEAE: Gastrointestinal Mucosal Dystrophies and Secretion Disorders [1]: 1 (<1%) n (%)
- TEAE: Gastrointestinal Signs and Symptoms NEC [1]: 2 (<1%) n (%)
- TEAE: Gastrointestinal Spastic and Hypermotility Disorders [1]: 5 (2%) n (%)
- TEAE: Gastrointestinal and Abdominal Pains (Excl Oral and Throat) [1]: 36 (14%) n (%)
- TEAE: Gingival Abscess [1]: 2 (<1%) n (%)
- TEAE: Gingival Atrophy [1]: 1 (<1%) n (%)
- TEAE: Gingival Disorders NEC [1]: 1 (<1%) n (%)
- TEAE: Gingival Pain [1]: 1 (<1%) n (%)
- TEAE: Gingival Pains [1]: 1 (<1%) n (%)
- TEAE: Gingivitis [1]: 0 n (%)
- TEAE: Gingivitis Infection NOS [1]: 1 (<1%) n (%)
- TEAE: Glucose Urine Present [1]: 1 (<1%) n (%)
- TEAE: Groin Pain [1]: 1 (<1%) n (%)
- TEAE: Haematocrit Decreased [1]: 1 (<1%) n (%)
- TEAE: Haemoglobin Decreased [1]: 1 (<1%) n (%)
- TEAE: Haemorrhoidal Haemorrhage [1]: 2 (<1%) n (%)
- TEAE: Haemorrhoids [1]: 4 (2%) n (%)
- TEAE: Haemorrhoids Aggravated [1]: 0 n (%)
- TEAE: Haemorrhoids and Gastrointestinal Varices (Excl Oesophageal) [1]: 6 (2%) n (%)
- TEAE: Halitosis [1]: 1 (<1%) n (%)
- TEAE: Headache NOS [1]: 19 (7%) n (%)
- TEAE: Headache NOS Aggravated [1]: 3 (1%) n (%)
- TEAE: Headaches NEC [1]: 25 (10%) n (%)
- TEAE: Heart Rate Increased [1]: 1 (<1%) n (%)
- TEAE: Heart Rate and Pulse Investigations [1]: 1 (<1%) n (%)
- TEAE: Heat Exhaustion [1]: 1 (<1%) n (%)
- TEAE: Heat Injuries (Excl Thermal Burns) [1]: 1 (<1%) n (%)
- TEAE: Helicobacter Pylori Antibody Positive [1]: 1 (<1%) n (%)
- TEAE: Herpes Simplex [1]: 2 (<1%) n (%)
- TEAE: Herpes Simplex Aggravated [1]: 1 (<1%) n (%)
- TEAE: Herpes Viral Infections [1]: 3 (1%) n (%)
- TEAE: Herpes Zoster [1]: 0 n (%)
- TEAE: Hiatus Hernia [1]: 2 (<1%) n (%)
- TEAE: Hyperreflexia [1]: 1 (<1%) n (%)
- TEAE: Hypoaesthesia [1]: 1 (<1%) n (%)
- TEAE: Infected Varicose Vein [1]: 1 (<1%) n (%)
- TEAE: Infections NEC [1]: 3 (1%) n (%)
